# Test results published in ChEMBL document CHEMBL6182926, “Design, Synthesis, and Biological Activity Evaluation of Deuterated Diphenyl Azole Alcohol-Based CYP51 Inhibitors” (J Med Chem, 2025).
# Experiments:
# Format in all cases: functional
# Nakaseomyces glabratus = experiment: Antifungal activity against Clinical isolate Candida glabrata assessed as inhibition of visible growth
# Candida tropicalis = experiment: Antifungal activity against Candida tropicalis CGMCC 2.3739 assessed as inhibition of visible growth
# Candida albicans [1] = experiment: Antifungal activity against Candida albicans SC 5314 assessed as inhibition of visible growth
# Pichia kudriavzevii = experiment: Antifungal activity against Candida krusei AS 2.1045 assessed as inhibition of visible growth
# Cryptococcus neoformans = experiment: Antifungal activity against Cryptococcus neoformans CGMCC 2.3161 assessed as inhibition of visible growth
# Candida albicans [2] = experiment: Antifungal activity against Candida albicans CPCC 400616 assessed as inhibition of visible growth
# Candida parapsilosis = experiment: Antifungal activity against Candida parapsilosis GIM 2.190 assessed as inhibition of visible growth; details: Lodderomyces parapsilosis
MIC80 (Nakaseomyces glabratus),MIC80 (Candida tropicalis),MIC80 (Candida albicans [1]),MIC80 (Pichia kudriavzevii),MIC80 (Cryptococcus neoformans),MIC80 (Candida albicans [2]),MIC80 (Candida parapsilosis),SMILES
0.2 µg/mL,0.012 µg/mL,0.025 µg/mL,0.2 µg/mL,0.4 µg/mL,0.025 µg/mL,0.05 µg/mL,CN(Cc1ccc(-c2ccc(C(F)(F)F)cc2)o1)CC(O)(Cn1cncn1)c1ccc(F)cc1F (stereo unspecified)
1.6 µg/mL,0.4 µg/mL,0.2 µg/mL,1.6 µg/mL,1.6 µg/mL,0.2 µg/mL,0.4 µg/mL,CN(Cc1cnc(-c2ccc(Cl)cc2)s1)CC(O)(Cn1cncn1)c1ccc(F)cc1F (stereo unspecified)
0.025 µg/mL,0.012 µg/mL,0.012 µg/mL,0.025 µg/mL,0.05 µg/mL,0.012 µg/mL,0.006 µg/mL,CN(Cc1ccc(-c2ccc(C(F)(F)F)cc2)cc1)CC(O)(Cn1cncn1)c1ccc(F)cc1F (stereo unspecified)
0.2 µg/mL,0.006 µg/mL,0.006 µg/mL,0.05 µg/mL,0.1 µg/mL,0.012 µg/mL,0.006 µg/mL,CN(Cc1ccc(-c2ccc(Cl)cc2)s1)CC(O)(Cn1cncn1)c1ccc(F)cc1F (stereo unspecified)
> 3.2 µg/mL,> 3.2 µg/mL,> 3.2 µg/mL,> 3.2 µg/mL,> 3.2 µg/mL,> 3.2 µg/mL,> 3.2 µg/mL,OC(CN(Cc1ccc(-c2ccc(Cl)cc2)cc1)C1CC1)(Cn1cncn1)c1ccc(F)cc1F (stereo unspecified)
0.1 µg/mL,0.012 µg/mL,0.012 µg/mL,0.1 µg/mL,0.05 µg/mL,0.012 µg/mL,0.012 µg/mL,CN(Cc1ccc(-c2ccc(-c3ccccc3)cc2)cn1)CC(O)(Cn1cncn1)c1ccc(F)cc1F (stereo unspecified)
0.05 µg/mL,0.025 µg/mL,0.025 µg/mL,0.05 µg/mL,0.05 µg/mL,0.025 µg/mL,0.025 µg/mL,OC(CNCc1ccc(-c2ccc(Cl)cc2)cc1)(Cn1cncn1)c1ccc(F)cc1F (stereo unspecified)
0.4 µg/mL,0.006 µg/mL,0.012 µg/mL,0.1 µg/mL,0.1 µg/mL,0.006 µg/mL,0.006 µg/mL,CN(Cc1ccc(-c2ccc(C(F)(F)F)cc2)s1)CC(O)(Cn1cncn1)c1ccc(F)cc1F (stereo unspecified)
0.4 µg/mL,0.025 µg/mL,0.012 µg/mL,0.2 µg/mL,0.1 µg/mL,0.025 µg/mL,0.025 µg/mL,CN(Cc1nc(-c2ccc(OC(F)(F)F)cc2)cs1)CC(O)(Cn1cncn1)c1ccc(F)cc1F (stereo unspecified)
0.1 µg/mL,0.012 µg/mL,0.025 µg/mL,0.1 µg/mL,0.2 µg/mL,0.012 µg/mL,0.05 µg/mL,CN(Cc1ccc(-c2ccc(OC(F)(F)F)cc2)o1)CC(O)(Cn1cncn1)c1ccc(F)cc1F (stereo unspecified)
0.025 µg/mL,0.006 µg/mL,0.006 µg/mL,0.012 µg/mL,0.012 µg/mL,0.006 µg/mL,0.006 µg/mL,CN(Cc1ccc(-c2ccc(Cl)c(F)c2)cc1)CC(O)(Cn1cncn1)c1ccc(F)cc1F (stereo unspecified)
0.4 µg/mL,0.012 µg/mL,0.012 µg/mL,0.05 µg/mL,0.1 µg/mL,0.012 µg/mL,0.012 µg/mL,CN(Cc1ccc(-c2ccc(F)cc2)cn1)CC(O)(Cn1cncn1)c1ccc(F)cc1F (stereo unspecified)
1.6 µg/mL,0.012 µg/mL,0.012 µg/mL,0.2 µg/mL,0.8 µg/mL,0.012 µg/mL,0.1 µg/mL,CN(Cc1ccc(-c2ccc(C#N)cc2)cn1)CC(O)(Cn1cncn1)c1ccc(F)cc1F (stereo unspecified)
0.4 µg/mL,0.012 µg/mL,0.012 µg/mL,0.1 µg/mL,0.4 µg/mL,0.012 µg/mL,0.025 µg/mL,COc1ccc(-c2ccc(CN(C)CC(O)(Cn3cncn3)c3ccc(F)cc3F)nc2)cc1 (stereo unspecified)
0.05 µg/mL,0.012 µg/mL,0.012 µg/mL,0.05 µg/mL,0.025 µg/mL,0.012 µg/mL,0.006 µg/mL,CN(Cc1ccc(-c2ccc(Cl)cc2)cn1)CC(O)(Cn1cncn1)c1ccc(F)cc1F (stereo unspecified)
1.6 µg/mL,0.012 µg/mL,0.25 µg/mL,0.2 µg/mL,0.8 µg/mL,0.012 µg/mL,0.1 µg/mL,Cc1ccc(-c2ccc(CN(C)CC(O)(Cn3cncn3)c3ccc(F)cc3F)nc2)cc1 (stereo unspecified)
0.2 µg/mL,0.012 µg/mL,0.012 µg/mL,0.1 µg/mL,0.025 µg/mL,0.012 µg/mL,0.012 µg/mL,CN(Cc1ccc(-c2cccc(Cl)c2)cn1)CC(O)(Cn1cncn1)c1ccc(F)cc1F (stereo unspecified)
0.1 µg/mL,0.006 µg/mL,0.006 µg/mL,0.05 µg/mL,0.05 µg/mL,0.012 µg/mL,0.006 µg/mL,CN(Cc1ccc(-c2ccc(OC(F)(F)F)cc2)s1)CC(O)(Cn1cncn1)c1ccc(F)cc1F (stereo unspecified)
